In patent publication US20080311126A1, “Antisense Oligonucleotides Directed to Ribonucleotide Reducatase R2 and Uses Thereof in Combination Therapies for the Treatment of Cancer” (Genesense Technologies, Inc, priority 2004, published 2008):
Oligonucleotides are written 5' to 3', each unit as a sugar letter and its base; * is a phosphorothioate linkage, no mark a phosphodiester; rarer units and linkages stand in square brackets, end groups in braces. Plain capitals give the bases only. d = 2'-deoxy (DNA)

Key:
Type in all cases: cell-based, human
Hela S3 cells = test: Relative colony forming efficiency, lipofectin +/- oligonucleotide 4 hours; conditions: Hela S3 cervix carcinoma cells; averages of 2-8 determinations
Procedure: Colony forming efficiency was determined using standard protocols. Briefly, the cells were cultured for 24 hours at 37° C. in growth medium with 10% fetal bovine serum. The cells were washed in 5 ml phosphate buffered saline, pH 7.2, once prior to lipofectin +/−oligonucleotide treatment.
The test oligonucleotides were added to cell cultures in the presence of 2.5 μg of DOTMA/DOPE (Lipofectin; Life Technologies, Inc.) for four hours. The oligonucleotide was tested at 0.2 μM unless otherwise indicated. Controls were the cultures treated with lipofectin but without the oligonucleotide. After 4 hours the medium containing the oligonucleotide was removed and washed with 5 ml of growth medium. The cells were then cultured in growth medium containing 10% fetal bovine serum for seven to ten days. Surviving cells were visualized by methylene blue staining, and colonies were scored. In some experiments cell aliquots were removed from the culture and viability was determined using the trypan blue exclusion test. Results were analyzed as percent of surviving cells compared to control cells.
AS-II-336-20 was tested for the ability to inhibit the proliferation of human tumour cells (Hela). Hela S3 cells (American Type Culture Collection, Rockville, Md., ATCC), and a Hela cell line (Hela 1 mM) previously selected for resistance to the antitumour agent, hydroxyurea, were tested (see results in Table 11). Two experiments were undertaken with Hela S3 cells. […] The same experiment was repeated with the Hela 1 mM cell line and with varying concentrations of the antisense construct AS-II-336-20 (see results in Table 11) with similar results, […] was an effective concentration for inhibiting colony formation.
To test the antisense effects of many of these sequences as phosphorthioate deoxyribonucleotides, they were examined in relative colony forming experiments conducted as described in Example 16 with a series of human tumour cell lines. The results (shown as % inhibition of colony forming ability) obtained with cancer cells derived from the bladder, breast, lung, colon, pancreas, prostate, liver and cervix, are shown in Table 13. The specific cell lines employed are as follows:
T24=bladder cell carcinoma HCT116=colon cell carcinoma A549=lung cell carcinoma MDA-MB-231=breast cell adenocarcinoma […]=pancreatic cell carcinoma PC-3=prostrate cell adenocarcinoma HepG2=hepatocellular carcinoma HeLaS3=cells isolated from a carcinoma of the cervix T-47D=breast ductal carcinoma H596=lung adenosquamous carcinoma cells Colo320=colon cell adenocarcinoma

[1] = tested on: HCT116 colon cell carcinoma; test: Relative colony forming efficiency (Example 17, Table 13); conditions: averages of 2-8 determinations
Procedure, shortened: (§1)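 Antisense phosphorothioates are tested at 0.2 μM unless stated, transfected with DOTMA/DOPE (2.5 μg) for four hours. Colony counts after methylene blue staining give percent inhibition versus vehicle-lipid controls.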

A549 lung cell carcinoma = test: as above; conditions: averages of 2-8 determinations
Procedure, shortened: as §1

[2] = tested on: HepG2 hepatocellular carcinoma; test: as above; conditions: averages of 2-8 determinations
Procedure, shortened: as §1

[3] = tested on: MDA-MB-231 breast cell adenocarcinoma; test: as above; conditions: averages of 2-8 determinations
Procedure, shortened: as §1

[4] = tested on: MDA PaCa-2 pancreatic cell carcinoma; test: as above; conditions: MIA PaCa-2 pancreatic cell carcinoma; averages of 2-8 determinations
Procedure, shortened: as §1

[5] = tested on: T24 bladder cell carcinoma; test: as above; conditions: averages of 2-8 determinations
Procedure, shortened: as §1

[6] = tested on: PC-3 prostrate cell adenocarcinoma; test: as above; conditions: averages of 2-8 determinations
Procedure, shortened: as §1

Sequence	Reduced relative colony forming efficiency, Hela S3 (% inhibition of colony forming ability) (Hela S3 cells) [%]	Reduced relative colony forming efficiency, HCT116 (% inhibition of colony forming ability) [1] [%]	Reduced relative colony forming efficiency, A549 (% inhibition of colony forming ability) (A549 lung cell carcinoma) [%]	Reduced relative colony forming efficiency, HepG2 (% inhibition of colony forming ability) [2] [%]	Reduced relative colony forming efficiency, MDA-MB-231 (% inhibition of colony forming ability) [3] [%]	Reduced relative colony forming efficiency, MIA PaCa-2 (% inhibition of colony forming ability) [4] [%]	Reduced relative colony forming efficiency, T24 (% inhibition of colony forming ability) [5] [%]	Reduced relative colony forming efficiency, PC-3 (% inhibition of colony forming ability) [6] [%]
TATCTCTCCTCGGGTTTCAG (antisense dT*dA*dT*dC*dT*dC*dT*dC*dC*dT*dC*dG*dG*dG*dT*dT*dT*dC*dA*dG) [AS-II-549-20]	27.8	47.83	30.57	84.04	40.13	17.01	45.46	
CGGCGGCGTGTTCTCCTTGT (antisense dC*dG*dG*dC*dG*dG*dC*dG*dT*dG*dT*dT*dC*dT*dC*dC*dT*dT*dG*dT) [AS-II-280-20]	41.79	69.42	61.81	97.14	79.14	53.94	90.56	77.51
TCTGCCTTCTTCTTGACACA (antisense dT*dC*dT*dG*dC*dC*dT*dT*dC*dT*dT*dC*dT*dT*dG*dA*dC*dA*dC*dA) [AS-II-798-20]	56.42	64.46	70.49	89.46	83.92	34.65	84.72	83.21
TGTAAACCCTCATCTCTGCT (antisense dT*dG*dT*dA*dA*dA*dC*dC*dC*dT*dC*dA*dT*dC*dT*dC*dT*dG*dC*dT) [AS-II-981-20]	69.43	66.84	74.25	95.03	91.48		86.3	85.16
TCAGAGGGGGCAGAGAATCC (antisense dT*dC*dA*dG*dA*dG*dG*dG*dG*dG*dC*dA*dG*dA*dG*dA*dA*dT*dC*dC) [AS-II-2044-20]	24.55	49.34	25.55	62.35	19.11	24.48	53.63	74.48
GGCATCAGTCCTCGTTTCTT (antisense dG*dG*dC*dA*dT*dC*dA*dG*dT*dC*dC*dT*dC*dG*dT*dT*dT*dC*dT*dT) [AS-II-933-20]	26.86	67.24	53.52		64.39	35.68	64.84	36.91
GGAAGATGACAAAGCGGCGG (antisense dG*dG*dA*dA*dG*dA*dT*dG*dA*dC*dA*dA*dA*dG*dC*dG*dG*dC*dG*dG) [AS-II-425-20]	63.09		57.38	97.89	89.75	65.2	90.37	75.65
TCGCTCCACCAAGTTTTCAT (antisense dT*dC*dG*dC*dT*dC*dC*dA*dC*dC*dA*dA*dG*dT*dT*dT*dT*dC*dA*dT) [AS-II-619-20]	31.22		65.67	92.02	91.08	39.83	86.3	88.01
TCCTTTATCCCACAACACTC (antisense dT*dC*dC*dT*dT*dT*dA*dT*dC*dC*dC*dA*dC*dA*dA*dC*dA*dC*dT*dC) [AS-II-2067-20]	24.88	47.16	64.71	90.36	49.68	41.08	49.6	
